# In US7902182B2, “HIV integrase inhibitors” (priority 2005, dated 2011):
# Target: T1, HIV-integrase (Human immunodeficiency virus type 1 group M subtype B, UniProt P12497)
# T1 construct: Recombinant integrase (0.26 ng) was incubated with the beads
# Assay: HIV-Integrase Inhibition Activity (SPA bead strand transfer assay)
# Assay type: biochemical
# Settings: recombinant integrase, biotin labeled substrate DNA on SPA beads, P33 labeled target DNA; read-out: Activity (IC50 against HIV-integrase)
# Description: HIV-Integrase InhibitionActivity. To evaluate in-vitro activity against HIV-integrase, 5 pmole of biotin labeled substrate DNA was bound to 100 μg of Streptavidin coated PVT SPA beads (Amersham Pharmacia Biotech). Recombinant integrase (0.26 ng) was incubated with the beads for 90 min at 37° C. Unbound enzyme was removed by washing the complex followed by addition of inhibitors and 0.1 fmol of P33 labeled target DNA. The reaction was stopped by adding EDTA to a final concentration of 10 mM. Samples were counted in TopCountNXT (Packard) and the CPM was used as a measure of integration. The reaction condition was as described in A. Engelman and R. Craigie, J. Virol. 69, 5908-5911 (1995). The sequences of substrate and target DNA were described in Nucleic Acid Research 22, 1121-1122 (1994).
# Activity equal to A refers to a compound having IC50=0.002 to 0.10 μM while B and C denote compounds having IC50=0.1 to 1.0 μM and IC50≧1.0 μM respectively.
row,Compound,IC50 [nM]
1,O=C(NCc1ccc(F)cc1S(=O)(=O)N1CCNCC1)c1nc2n(c(=O)c1O)CCOC21CCOCC1 [Example 1],2 to 100
2,CN1CCN(S(=O)(=O)c2cc(F)ccc2CNC(=O)c2nc3n(c(=O)c2O)CCOC32CCOCC2)CC1 [Example 2],2 to 100
3,COC(=O)N1CCN(S(=O)(=O)c2cc(F)ccc2CNC(=O)c2nc3n(c(=O)c2O)CCOC32CCOCC2)CC1 [Example 3],2 to 100
4,CCN1CCN(S(=O)(=O)c2cc(F)ccc2CNC(=O)c2nc3n(c(=O)c2O)CCOC32CCOCC2)CC1 [Example 5],2 to 100
5,CN(C)C(=O)N1CCN(S(=O)(=O)c2cc(F)ccc2CNC(=O)c2nc3n(c(=O)c2O)CCOC32CCOCC2)CC1 [Example 7],2 to 100
6,CN(C)S(=O)(=O)N1CCN(S(=O)(=O)c2cc(F)ccc2CNC(=O)c2nc3n(c(=O)c2O)CCOC32CCOCC2)CC1 [Example 8],2 to 100
7,O=C(NCc1ccc(F)cc1S(=O)(=O)N1CCN(C(=O)N2CCOCC2)CC1)c1nc2n(c(=O)c1O)CCOC21CCOCC1 [Example 9],2 to 100
8,CC(=O)N1CCN(S(=O)(=O)c2cc(F)ccc2CNC(=O)c2nc3n(c(=O)c2O)CCOC32CCOCC2)CC1 [Example 10],2 to 100
9,O=C(NCc1ccc(F)cc1S(=O)(=O)N1CCOCC1)c1nc2n(c(=O)c1O)CCOC21CCOCC1 [Example 11],2 to 100
10,O=C(NCc1ccc(F)cc1S(=O)(=O)N1CCOCC1)c1nc2n(c(=O)c1O)CCOC21CCCC1 [Example 12],2 to 100
11,O=C(NCc1ccc(F)cc1S(=O)(=O)N1CCOCC1)c1nc2n(c(=O)c1O)CCCC21CCCC1 [Example 13],2 to 100
12,CC1(C)OCCn2c1nc(C(=O)NCc1ccc(F)cc1S(=O)(=O)N1CCNCC1)c(O)c2=O [Example 14],2 to 100
13,CN1CCN(S(=O)(=O)c2cc(F)ccc2CNC(=O)c2nc3n(c(=O)c2O)CCOC3(C)C)CC1 [Example 15],2 to 100
14,CC1(C)OCCn2c1nc(C(=O)NCc1ccc(F)cc1S(=O)(=O)N1CCN(S(C)(=O)=O)CC1)c(O)c2=O [Example 16],2 to 100
15,CC1(C)OCCn2c1nc(C(=O)NCc1ccc(F)cc1S(=O)(=O)N1CCN(C(=O)N3CCOCC3)CC1)c(O)c2=O [Example 17],2 to 100
16,COC(=O)N1CCN(S(=O)(=O)c2cc(F)ccc2CNC(=O)c2nc3n(c(=O)c2O)CCOC3(C)C)CC1 [Example 18],2 to 100
17,CN(C)C(=O)N1CCN(S(=O)(=O)c2cc(F)ccc2CNC(=O)c2nc3n(c(=O)c2O)CCOC3(C)C)CC1 [Example 19],2 to 100
18,CC(=O)N1CCN(S(=O)(=O)c2cc(F)ccc2CNC(=O)c2nc3n(c(=O)c2O)CCOC3(C)C)CC1 [Example 20],2 to 100
19,CN(C)S(=O)(=O)N1CCN(S(=O)(=O)c2cc(F)ccc2CNC(=O)c2nc3n(c(=O)c2O)CCOC3(C)C)CC1 [Example 21],2 to 100
20,O=C(NCc1ccc(F)cc1S(=O)(=O)N1CCNCC1)c1nc2n(c(=O)c1O)CCOC21CCCC1 [Example 22],2 to 100

row,Compound,IC50 [nM]
1,CN1CCN(S(=O)(=O)c2cc(F)ccc2CNC(=O)c2nc3n(c(=O)c2O)CCOC32CCCC2)CC1 [Example 23],2 to 100
2,CN1CCN(S(=O)(=O)c2cc(F)ccc2CNC(=O)c2nc3n(c(=O)c2O)CCOC32CCC2)CC1 [Example 24],2 to 100
3,CC1(C)OCCn2c1nc(C(=O)NCc1ccc(F)cc1S(=O)(=O)N1CCC(O)CC1)c(O)c2=O [Example 25],2 to 100
4,CC1(C)OCCn2c1nc(C(=O)NCc1ccc(F)cc1S(=O)(=O)N1CCC1)c(O)c2=O [Example 26],2 to 100
5,CC1(C)OCCn2c1nc(C(=O)NCc1ccc(F)cc1S(=O)(=O)N1CCOCC1)c(O)c2=O [Example 27],2 to 100
6,CC1(C)OCCn2c1nc(C(=O)NCc1ccc(F)cc1S(=O)(=O)N1CCCCCC1)c(O)c2=O [Example 28],2 to 100
7,CC1(C)OCCn2c1nc(C(=O)NCc1ccc(F)cc1S(=O)(=O)N1CCC(O)C1)c(O)c2=O (stereo not shown) [Example 29],2 to 100
8,CC1(C)OCCn2c1nc(C(=O)NCc1ccc(F)cc1S(=O)(=O)N1CCCCC1)c(O)c2=O [Example 30],2 to 100
9,CC1(C)OCCn2c1nc(C(=O)NCc1ccc(F)cc1S(=O)(=O)N1CCC3(CC1)OCCO3)c(O)c2=O [Example 31],2 to 100
10,CC1(C)OCCn2c1nc(C(=O)NCc1ccc(F)cc1S(=O)(=O)N1CCC3(CCNC3=O)CC1)c(O)c2=O [Example 32],2 to 100
11,CC1(C)OCCn2c1nc(C(=O)NCc1ccc(F)cc1S(=O)(=O)N1CCCC1)c(O)c2=O [Example 33],2 to 100
12,CC(=O)N(C)C1CCN(S(=O)(=O)c2cc(F)ccc2CNC(=O)c2nc3n(c(=O)c2O)CCOC3(C)C)C1 (stereo not shown) [Example 34],2 to 100
13,CC1CN(S(=O)(=O)c2cc(F)ccc2CNC(=O)c2nc3n(c(=O)c2O)CCOC3(C)C)CC(C)N1 (stereo not shown) [Example 35],2 to 100
14,CC1CN(S(=O)(=O)c2cc(F)ccc2CNC(=O)c2nc3n(c(=O)c2O)CCOC3(C)C)CC(C)N1C (stereo not shown) [Example 36],2 to 100
15,C[C@@H]1CN(S(=O)(=O)c2cc(F)ccc2CNC(=O)c2nc3n(c(=O)c2O)CCOC3(C)C)CCN1C(=O)OC(C)(C)C [Example 37],2 to 100
16,CS[C@@H]1COC[C@H]1N1CCN(S(=O)(=O)c2cc(F)ccc2CNC(=O)c2nc3n(c(=O)c2O)CCOC3(C)C)CC1 [Example 38],2 to 100
17,CC1(C)OCCn2c1nc(C(=O)NCc1ccc(F)cc1S(=O)(=O)N1CCOC(CN3CCCC3)C1)c(O)c2=O (stereo not shown) [Example 39],2 to 100
18,CN(C)[C@@H]1COC[C@H]1N1CCN(S(=O)(=O)c2cc(F)ccc2CNC(=O)c2nc3n(c(=O)c2O)CCOC3(C)C)CC1 [Example 40],2 to 100
19,C[C@@H]1CN(S(=O)(=O)c2cc(F)ccc2CNC(=O)c2nc3n(c(=O)c2O)CCOC3(C)C)CCN1 [Example 41],2 to 100
20,C[C@@H]1CN(S(=O)(=O)c2cc(F)ccc2CNC(=O)c2nc3n(c(=O)c2O)CCOC3(C)C)CCN1C [Example 42],2 to 100
